Source: ChEMBL document CHEMBL4414652, “Identification of Methionine Aminopeptidase-2 (MetAP-2) Inhibitor M8891: A Clinical Compound for the Treatment of Cancer” (J Med Chem, 2019)
Values after ≈ are worked out from the molar mass of the structure shown.

Assays:
[1] = target: Methionine aminopeptidase 1 (Homo sapiens, UniProt P53582)
Description: Inhibition of N-terminal MetAP1 (unknown origin)

in vivo [2] = conditions: mouse, faeces, iv
Description: Drug recovery in iv dosed mouse feces

in vitro [3] = conditions: mouse, plasma
Description: Protein binding in mouse plasma assessed as unbound fraction

[4] = mouse, in vivo, iv, 1 mg/kg
[5] = Drug recovery in dog at 0.2 mg/kg, iv measured up to 72 hrs; format: ADME, organism-based, Canis lupus familiaris; conditions: in vivo
physchem = conditions: PBS buffer
Description: Solubility of compound in PBS buffer

in vitro [6] = conditions: human, plasma
Description: Protein binding in human plasma assessed as unbound fraction

[7] = Drug recovery in monkey at 0.2 mg/kg, iv measured up to 72 hrs; format: ADME, organism-based, Macaca mulatta; conditions: rhesus monkey, in vivo
in vivo [8] = conditions: mouse, iv
Description: Half life in iv dosed mouse

Description for CAKI-1: Antitumour activity against human Caki1 cells xenografted in nude CD-1 mouse assessed as tumor growth at 25 mg/kg, po BID for 36 days relative to control
Description for U-87 MG: Antitumour activity against human U87MG cells xenografted in nude CD-1 mouse assessed as tumor growth at 20 mg/kg, po administered daily for 14 days relative to control

IC50 [1]	dose excreted (in vivo [2])	Structure (SMILES)	also measured
> 10 µM	–	O=C1CCc2cc(N3CC[C@](O)(C(=O)NCc4cc(F)cc(Cl)c4)C3=O)cc(F)c2N1	–
> 10 µM	–	O=C1CCc2cc(N3CC[C@](O)(C(=O)NCc4cc(F)c(F)c(F)c4)C3=O)ccc2N1	–
> 10 µM	–	CCNC(=O)c1cc2cc(N3CC[C@](O)(C(=O)NCc4cc(F)cc(Cl)c4)C3=O)ccc2[nH]1	–
> 10 µM	–	CS(=O)(=O)Nc1cccc(N2CC[C@](O)(C(=O)NCc3cc(F)cc(Cl)c3)C2=O)c1	–
> 10 µM	2.3%	O=C(NCc1cc(F)cc(Cl)c1)[C@@]1(O)CCN(c2cnc3[nH]ccc3c2)C1=O	T/C (U-87 MG): 45%
> 10 µM	< 1%	O=C(NCc1cc(F)cc(F)c1)[C@@]1(O)CCN(c2ccc3[nH]ncc3c2)C1=O	–
> 10 µM	< 1%	O=C(NCc1cc(F)cc(F)c1)[C@@]1(O)CCN(c2cnc3[nH]ccc3c2)C1=O	T/C (CAKI-1): 39%
> 10 µM	–	NCCCNC(=O)c1cc2cc(N3CC[C@](O)(C(=O)NCc4cc(F)cc(Cl)c4)C3=O)ccc2[nH]1	–
> 10 µM	–	CN1C(=O)CCc2cc(N3CC[C@](O)(C(=O)NCc4cc(F)cc(Cl)c4)C3=O)ccc21	–
> 10 µM	< 1%	O=C(NCc1cc(F)cc(Cl)c1)[C@@]1(O)CCN(c2ccc3[nH]ncc3c2)C1=O	–
> 10 µM	–	O=C1CCc2cc(N3CC[C@](O)(C(=O)NCc4cc(F)cc(F)c4)C3=O)ccc2N1	–
> 10 µM	< 1%	O=C(NCc1cc(F)cc(Cl)c1)[C@@]1(O)CCN(c2ccc3[nH]ccc3c2)C1=O	–
> 10 µM	–	O=C1CCc2cc(N3CC[C@](O)(C(=O)NCc4cc(F)ccc4Cl)C3=O)ccc2N1	–
> 10 µM	–	O=C1CCc2cc(N3CC[C@](O)(C(=O)NCc4c(F)cccc4Cl)C3=O)ccc2N1	–
> 10 µM	23%	O=C1CCc2cc(N3CC[C@](O)(C(=O)NCc4cc(F)cc(Cl)c4)C3=O)ccc2N1	fraction unbound (in vitro [3]): 0.017; AUC [4]: 19 ng·h/mL; Drug recovery [5]: Active; T/C (U-87 MG): 45%; solubility (physchem): 90 µg/mL (≈ 208 µM); fraction unbound (in vitro [6]): 0.023; Drug recovery [7]: Active; half-life (in vivo [8]): 3 h
> 10 µM	–	O=C1CCc2cc(N3CC[C@](O)(C(=O)NCc4cccc(F)c4F)C3=O)ccc2N1	–
> 10 µM	–	O=C1CCc2cc(N3CC[C@](O)(C(=O)NCc4cccc(Cl)c4F)C3=O)ccc2N1	–
> 10 µM	–	O=C1CCc2cc(N3CC[C@](O)(C(=O)NCc4cc(F)cc(Cl)c4F)C3=O)ccc2N1	–
> 10 µM	–	O=C1CCc2cc(N3CC[C@](O)(C(=O)NCc4cc(F)cc(F)c4F)C3=O)ccc2N1	–
> 10 µM	–	Cc1cc2cc(N3CC[C@](O)(C(=O)NCc4cc(F)cc(Cl)c4)C3=O)ccc2[nH]1	–
> 10 µM	–	O=C1CCc2cc(N3CC[C@](O)(C(=O)NCc4c(F)cccc4F)C3=O)ccc2N1	–
> 10 µM	–	O=C1CCc2cc(N3CC[C@](O)(C(=O)NCc4c(F)ccc(F)c4F)C3=O)ccc2N1	–
> 10 µM	1.5%	O=C(NCc1cc(F)cc(Cl)c1)[C@@]1(O)CCN(c2cnc3[nH]cc(Cl)c3c2)C1=O	–
> 10 µM	–	O=C1CCc2cc(N3CC[C@](O)(C(=O)NCc4ccc(F)c(Cl)c4F)C3=O)ccc2N1	–
> 10 µM	2.7%	O=C(NCc1cc(F)cc(F)c1)[C@@]1(O)CCN(c2cnc3[nH]cc(Cl)c3c2)C1=O	–
